Measurements published in US4507485A, “3,4-Disubstituted-1,2,5-oxadiazoles having histamine H2 -receptor antagonist activity” (Bristol-Myers Company, priority 1984, dated 1985).

What was measured:
[1] = in vivo; cited from earlier work
gastric secretion = settings: cited from earlier work
histamine H2-receptor = settings: cited from earlier work; for histamine H2-antagonist potency/effectiveness: compared with burimamide or metiamide
[2] = in vivo; cited from earlier work; remark: listed apart in the source
peptic ulcer disease = settings: clinical evaluation; cited from earlier work
[3] = test system: gastric secretion (gastric fistula rat); histamine H2-receptor; test: Gastric antisecretory activity in the gastric fistula rat; format: in vivo, rat (male Long Evans); settings: sc; for Potency Ratio: relative to cimetidine = 1.0
Procedure: Male Long Evans rats weighing about 240-260 grams at the time of cannula implantation are used. […] The fistula components are designed and the operative procedure is carried out exactly as described in the above reference. Post operatively the animals are individually housed in solid bottom cages with sawdust and are allowed food and water ad libitum throughout the entire recovery period. Animals are not used for test purposes for at least 15 days after the operative procedure. The animals are fasted but allowed water ad libitum for 20 hours before the testing procedure is to begin. […] The catheter is then screwed into the cannula in place of the plugging screw and the rat is placed in a clear plastic rectangular cage measuring 40 cm long, 15 cm wide and 13 cm high. The bottom of the cage has a slit approximately 1.5 cm wide and 25 cm long running down the center to accommodate the catheter which hangs through it. […] Chem. Path. […] Gastric secretions collected during the first hour after washing the stomach are discarded as they may be contaminated. For oral evaluation, the catheter is then removed from the cannula and replaced with the plugging screw. […] After this time the plugging screw is removed and replaced with a catheter to which a small plastic vial has been attached to collect the gastric secretions. […] The secretions in the second sample are compared to those of the control sample in order to determine the effects of the test drug. […] Results are expressed as percent inhibition relative to control readings. Dose response curves are constructed and ED50 values are calculated by regression analyses. At least three rats are used at each dosage level and a minimum of three dosage levels are utilized for determination of a dose response curve.

[4] = test system: gastric secretion (Heidenhain pouch dog); test: Gastric antisecretory activity in the Heidenhain pouch dog; format: in vivo, dog (female); settings: iv; for ED50: Canis lupus familiaris, histamine infusion
Procedure: Prior to surgery, hematology and blood chemistry profiles are obtained and an assessment made as to the general health of selected female dogs. Dogs are vaccinated with Tissue Vax 5 (DHLP--Pitman-Moore) and housed in general animal quarters for four weeks' observation so incipient diseases may become apparent. Dogs are fasted with water ad libitum 24 hours prior to surgery.
Anesthesia is induced with Sodium Pentothal (Abbott) 25-30 mg/kg iv. Subsequent anesthesia is maintained with methoxyflurane (Pitman-Moore). A mid-line linea alba incision from xiphoid to umbilicus provides good exposure and ease of closure. The stomach is pulled up into the operative field, the greater curvature stretched out at multiple points and clamps placed along the selected line of incision. The pouch is made from the corpus of the stomach so that true parietal cell juice is obtained. About 30% of the corpus volume is resected. […]
Ninety minutes' infusion are allowed for the dogs to reach a steady state of acid output. […] Each sample is measured to the nearest 0.5 ml and titratable acidity is determined by titrating a 1 ml sample to pH 7.0 with 0.2N NaOH, using an Autoburet and an electrometric pH meter (Radiometer). Titratable acid output is calculated in microequivalents by multiplying the volume in milliliters by the acid concentration in milliequivalents per liter.
Results are expressed as percent inhibition relative to control readings and the response is the average for five days at that dose level.

Structure (SMILES)	toxicity (agranulocytosis) [2]	histamine H2-antagonist potency/effectiveness (histamine H2-receptor)	ED50 [3]	Potency Ratio [3]	ED50 [4]	further results
CNC(=S)NCCCCc1cnc[nH]1 [Burimamide]						oral absorption [1]: poor; inhibition of gastric secretion (gastric secretion; animals, including man): inhibits gastric secretion in animals, including man; clinical effectiveness as histamine H2-receptor antagonist (histamine H2-receptor; clinical): first clinically effective
CN=C(NC#N)NCCSCc1[nH]cnc1C [Cimetidine]	without producing agranulocytosis	as effective an histamine H2 -antagonist as metiamide				therapeutic effect in peptic ulcer disease (peptic ulcer disease): effective therapeutic agent in the treatment of peptic ulcer disease
Nc1nonc1NCCCOc1cccc(CN2CCCCC2)c1 [Example 1, 3-Amino-4-[3-(3-piperidinomethylphenoxy)propylamino]-1,2,5-oxadiazole]			0.18 µmol/kg	19.3	0.03 mg/kg	Potency Ratio ([4]; relative to ranitidine = 1.0): 1.8
CN(C)Cc1ccc(CSCCNc2nonc2N)o1 [Example 2, 3-Amino-4-{2-[(5-dimethylaminomethyl-2-furyl)methylthio]ethylamino}-1,2,5-oxadiazole]			5 µmol/kg	0.70		
CNC(=S)NCCSCc1[nH]cnc1C [Metiamide]	toxicity (agranulocytosis)	more potent than burimamide				oral activity in man (gastric secretion; oral, man): orally active in man
CNC(=C[N+](=O)[O-])NCCSCc1ccc(CN(C)C)o1 [Ranitidine]					0.054 mg/kg	
